PubChem BioAssay AID1259407 (Chemical Carcinogenesis Research Information System (CCRIS), 2018)
Active and inactive are the calls of the source. How the calls were made is not given here.

Tested on: CCRIS mutagenicity, Ames/micronucleus/aberration tests
Test: CCRIS mutagenicity studies

Oc1ccccc1
mutagenic call (End Point: IN VITRO CHROMOSOMAL ABERRATIONS, Test System: CHO CELLS, Metabolic Activation: NONE): inactive; negative
mutagenic call (End Point: IN VITRO CHROMOSOMAL ABERRATIONS, Test System: CHO CELLS, Metabolic Activation: RAT, LIVER, S-9, AROCLOR 1254): active; positive
mutagenic call (End Point: IN VITRO CHROMOSOMAL ABERRATIONS, Test System: V79 CELLS, Metabolic Activation: NONE): inactive; negative; effect more pronounced at ph 8 but no significant increase
mutagenic call (End Point: IN VITRO MICRONUCLEUS, Test System: CHINESE HAMSTER OVARY (CHO-K5), Metabolic Activation: NONE): active; positive; no statistical analysis was performed
mutagenic call (End Point: IN VITRO MICRONUCLEUS, Test System: CHINESE HAMSTER OVARY (CHO-K5), Metabolic Activation: RAT, LIVER, S-9, PHENOBARBITAL AND BETA-NAPHTHOFLAVONE): active; positive
mutagenic call (End Point: IN VITRO MICRONUCLEUS, Test System: CHL/IU CELLS, Metabolic Activation: RAT, LIVER, S-9, PHENOBARBITAL AND 5,6-BENZOFLAVONE): active; positive
mutagenic call (End Point: IN VITRO MICRONUCLEUS, Test System: CHO CELLS, Metabolic Activation: RAT, LIVER, S-9, AROCLOR 1254): active; positive
mutagenic call (End Point: In vivo micronucleus, Test System: Bone marrow cells, Species: Mouse, Strain/Sex: CD1/Female, Route: Intraperitoneal): active; positive (highest dose only)
mutagenic call (End Point: In vivo micronucleus, Test System: Bone marrow cells, Species: Mouse, Strain/Sex: CD1/Male, Route: Intraperitoneal): active; positive (highest dose only)
mutagenic call (Test System: AMES SALMONELLA TYPHIMURIUM, Strain/Indicator: TA97, Metabolic Activation: NONE, Method: PREINCUBATION): inactive; negative
mutagenic call (Test System: AMES SALMONELLA TYPHIMURIUM, Strain/Indicator: TA97, Metabolic Activation: RAT, LIVER, S-9, AROCLOR 1254, Method: PREINCUBATION): inactive; negative
mutagenic call (Test System: AMES SALMONELLA TYPHIMURIUM, Strain/Indicator: TA98, Metabolic Activation: NONE, Method: FLUCTUATION (MICROTITER)): inactive; negative
mutagenic call (Test System: AMES SALMONELLA TYPHIMURIUM, Strain/Indicator: TA98, Metabolic Activation: NONE, Method: PREINCUBATION): inactive; negative
mutagenic call (Test System: AMES SALMONELLA TYPHIMURIUM, Strain/Indicator: TA98, Metabolic Activation: RAT LIVER S-9, AROCLOR 1254, Method: FLUCTUATION (MICROTITER)): inactive; negative
mutagenic call (Test System: AMES SALMONELLA TYPHIMURIUM, Strain/Indicator: TA98, Metabolic Activation: RAT LIVER S-9, PHENOBARBITAL AND BETA-NAPHTHOFLAVONE, Method: PREINCUBATION): inactive; negative
mutagenic call (Test System: AMES SALMONELLA TYPHIMURIUM, Strain/Indicator: TA98, Metabolic Activation: RAT, LIVER, S-9, AROCLOR 1254, Method: PREINCUBATION): inactive; negative
mutagenic call (Test System: AMES SALMONELLA TYPHIMURIUM, Strain/Indicator: TA98, Metabolic Activation: RAT, LIVER, S-9, AROCLOR 1254, Method: STANDARD PLATE): inactive; negative
mutagenic call (Test System: AMES SALMONELLA TYPHIMURIUM, Strain/Indicator: TA100, Metabolic Activation: NONE, Method: FLUCTUATION TEST): inactive; negative
mutagenic call (Test System: AMES SALMONELLA TYPHIMURIUM, Strain/Indicator: TA100, Metabolic Activation: NONE, Method: PREINCUBATION): inactive; negative
mutagenic call (Test System: AMES SALMONELLA TYPHIMURIUM, Strain/Indicator: TA100, Metabolic Activation: RAT LIVER S-9, PHENOBARBITAL AND BETA-NAPHTHOFLAVONE, Method: PREINCUBATION): inactive; negative
mutagenic call (Test System: AMES SALMONELLA TYPHIMURIUM, Strain/Indicator: TA100, Metabolic Activation: RAT, LIVER, S-9, AROCLOR 1254, Method: PREINCUBATION): inactive; negative
mutagenic call (Test System: AMES SALMONELLA TYPHIMURIUM, Strain/Indicator: TA100, Metabolic Activation: RAT, LIVER, S-9, PCB, Method: FLUCTUATION TEST): active; positive
mutagenic call (Test System: AMES SALMONELLA TYPHIMURIUM, Strain/Indicator: TA102, Metabolic Activation: NONE, Method: PREINCUBATION): inactive; negative
mutagenic call (Test System: AMES SALMONELLA TYPHIMURIUM, Strain/Indicator: TA102, Metabolic Activation: RAT, LIVER, S-9, AROCLOR 1254, Method: PREINCUBATION): inactive; negative
mutagenic call (Test System: AMES SALMONELLA TYPHIMURIUM, Strain/Indicator: TA104, Metabolic Activation: NONE, Method: PREINCUBATION): inactive; negative
mutagenic call (Test System: AMES SALMONELLA TYPHIMURIUM, Strain/Indicator: TA104, Metabolic Activation: RAT, LIVER, S-9, AROCLOR 1254, Method: PREINCUBATION): inactive; negative
mutagenic call (Test System: AMES SALMONELLA TYPHIMURIUM, Strain/Indicator: TA1535, Metabolic Activation: NONE, Method: PREINCUBATION): inactive; negative
mutagenic call (Test System: AMES SALMONELLA TYPHIMURIUM, Strain/Indicator: TA1535, Metabolic Activation: RAT LIVER S-9, PHENOBARBITAL AND BETA-NAPHTHOFLAVONE, Method: PREINCUBATION): inactive; negative
mutagenic call (Test System: AMES SALMONELLA TYPHIMURIUM, Strain/Indicator: TA1535, Metabolic Activation: RAT, LIVER, S-9, AROCLOR 1254, Method: PREINCUBATION): inactive; negative
mutagenic call (Test System: AMES SALMONELLA TYPHIMURIUM, Strain/Indicator: TA1535, Metabolic Activation: RAT, LIVER, S-9, AROCLOR 1254, Method: STANDARD PLATE): inactive; negative
mutagenic call (Test System: AMES SALMONELLA TYPHIMURIUM, Strain/Indicator: TA1537, Metabolic Activation: NONE, Method: FLUCTUATION (MICROTITER)): inactive; negative
mutagenic call (Test System: AMES SALMONELLA TYPHIMURIUM, Strain/Indicator: TA1537, Metabolic Activation: NONE, Method: PREINCUBATION): inactive; negative
mutagenic call (Test System: AMES SALMONELLA TYPHIMURIUM, Strain/Indicator: TA1537, Metabolic Activation: RAT LIVER S-9, AROCLOR 1254, Method: FLUCTUATION (MICROTITER)): inactive; negative
mutagenic call (Test System: AMES SALMONELLA TYPHIMURIUM, Strain/Indicator: TA1537, Metabolic Activation: RAT LIVER S-9, PHENOBARBITAL AND BETA-NAPHTHOFLAVONE, Method: PREINCUBATION): inactive; negative
mutagenic call (Test System: AMES SALMONELLA TYPHIMURIUM, Strain/Indicator: TA7001, Metabolic Activation: NONE, Method: FLUCTUATION (MICROTITER)): inactive; negative
mutagenic call (Test System: AMES SALMONELLA TYPHIMURIUM, Strain/Indicator: TA7001, Metabolic Activation: RAT LIVER S-9, AROCLOR 1254, Method: FLUCTUATION (MICROTITER)): inactive; negative
mutagenic call (Test System: AMES SALMONELLA TYPHIMURIUM, Strain/Indicator: TA7002, Metabolic Activation: NONE, Method: FLUCTUATION (MICROTITER)): inactive; negative
mutagenic call (Test System: AMES SALMONELLA TYPHIMURIUM, Strain/Indicator: TA7002, Metabolic Activation: RAT LIVER S-9, AROCLOR 1254, Method: FLUCTUATION (MICROTITER)): inactive; negative
mutagenic call (Test System: AMES SALMONELLA TYPHIMURIUM, Strain/Indicator: TA7003, Metabolic Activation: NONE, Method: FLUCTUATION (MICROTITER)): inactive; negative
mutagenic call (Test System: AMES SALMONELLA TYPHIMURIUM, Strain/Indicator: TA7003, Metabolic Activation: RAT LIVER S-9, AROCLOR 1254, Method: FLUCTUATION (MICROTITER)): inactive; negative
mutagenic call (Test System: AMES SALMONELLA TYPHIMURIUM, Strain/Indicator: TA7004, Metabolic Activation: NONE, Method: FLUCTUATION (MICROTITER)): inactive; negative
mutagenic call (Test System: AMES SALMONELLA TYPHIMURIUM, Strain/Indicator: TA7004, Metabolic Activation: RAT LIVER S-9, AROCLOR 1254, Method: FLUCTUATION (MICROTITER)): inactive; negative
mutagenic call (Test System: AMES SALMONELLA TYPHIMURIUM, Strain/Indicator: TA7005, Metabolic Activation: NONE, Method: FLUCTUATION (MICROTITER)): inactive; negative
mutagenic call (Test System: AMES SALMONELLA TYPHIMURIUM, Strain/Indicator: TA7005, Metabolic Activation: RAT LIVER S-9, AROCLOR 1254, Method: FLUCTUATION (MICROTITER)): inactive; negative
mutagenic call (Test System: AMES SALMONELLA TYPHIMURIUM, Strain/Indicator: TA7006, Metabolic Activation: NONE, Method: FLUCTUATION (MICROTITER)): inactive; negative
mutagenic call (Test System: AMES SALMONELLA TYPHIMURIUM, Strain/Indicator: TA7006, Metabolic Activation: RAT LIVER S-9, AROCLOR 1254, Method: FLUCTUATION (MICROTITER)): inactive; negative
mutagenic call (Test System: CHINESE HAMSTER V-79, Strain/Indicator: V-79/6-THIOGUANINE, Metabolic Activation: NONE): inactive; negative
mutagenic call (Test System: E.COLI, Strain/Indicator: WP2UVRA, Metabolic Activation: NONE, Method: PREINCUBATION): inactive; negative
mutagenic call (Test System: E.COLI, Strain/Indicator: WP2UVRA, Metabolic Activation: RAT LIVER S-9, PHENOBARBITAL AND BETA-NAPHTHOFLAVONE, Method: PREINCUBATION): inactive; negative
mutagenic call (Test System: MOUSE LYMPHOMA, Strain/Indicator: L5178Y (TK+/TK-), Metabolic Activation: NONE, Method: SUSPENSION/PLATE): active; positive
mutagenic call (Test System: MOUSE LYMPHOMA, Strain/Indicator: L5178Y (TK+/TK-), Metabolic Activation: RAT, LIVER, S-9, AROCLOR 1254, Method: SUSPENSION/PLATE): active; positive
mutagenic call (Test System: UDS SHE CELLS, Strain/Indicator: THY INCORP, Metabolic Activation: NONE, Method: LIQUID SCINTILLATION COUNTING): active; positive
